Data reported in article PMC5437844 (Journal of medicinal chemistry, 2017).
In brackets after ≈: the same amount, converted by molar mass. Entries after “also recorded” stand apart in the source; their conditions may differ. Like-named read-outs stand apart in the source and are kept apart here.

Experiments:
C. elegans AU37 = format: in vivo, Caenorhabditis elegans; conditions: 20 μg/mL, 24 hours exposure
E. coli ΔtolC = test: Bacterial Cytological Profiling; format: cell-based, Escherichia coli; conditions: 5 × MIC (25 μg/mL), two hours
[1] = test system: vancomycin-resistant S. aureus (VRSA); conditions: cited from earlier work
[2] = test system: vancomycin-resistant Enterococcus faecalis ATCC 51299; test: Multi-step resistance selection; format: cell-based; conditions: one-fold increase = MIC x → 2x
[3] = test system: E. faecalis and E. faecium; test: MIC and MBC against strains of E. faecalis and E. faecium; format: cell-based
[4] = test system: human colorectal (HRT-18) cells; test: MTS cytotoxicity assay; format: cell-based; conditions: for Non-toxic up to (concentration): tested 5-40 μg/mL
[5] = human liver microsomes; cited from earlier work
[6] = test system: vancomycin-resistant Enterococcus faecalis HM-201; test: Time-kill analysis; format: cell-based; conditions: 4 × MIC, 24 hour incubation, 37 °C
Caco-2 = conditions: polarized cell monolayer; ref not given; cited from earlier work
[7] = test system: vancomycin-resistant Enterococcus faecium HM-968; test: Multi-step resistance selection; format: cell-based; conditions: one-fold increase = MIC x → 2x
E. faecalis = test: MIC against E. faecalis isolates; conditions: Enterococcus faecalis
E. faecalis NR-31975 = test: UDP-N-acetylmuramyl-pentapeptide accumulation; format: cell-based, Enterococcus faecalis; conditions: 10 × MIC, 30 minutes
human FPPS (HsFPPS) = human FPPS (HsFPPS) (Homo sapiens, UniProt P14324); test: HsFPPS inhibition assay; format: biochemical; conditions: data not shown
Sequence of human FPPS (HsFPPS) (P14324 whole entry): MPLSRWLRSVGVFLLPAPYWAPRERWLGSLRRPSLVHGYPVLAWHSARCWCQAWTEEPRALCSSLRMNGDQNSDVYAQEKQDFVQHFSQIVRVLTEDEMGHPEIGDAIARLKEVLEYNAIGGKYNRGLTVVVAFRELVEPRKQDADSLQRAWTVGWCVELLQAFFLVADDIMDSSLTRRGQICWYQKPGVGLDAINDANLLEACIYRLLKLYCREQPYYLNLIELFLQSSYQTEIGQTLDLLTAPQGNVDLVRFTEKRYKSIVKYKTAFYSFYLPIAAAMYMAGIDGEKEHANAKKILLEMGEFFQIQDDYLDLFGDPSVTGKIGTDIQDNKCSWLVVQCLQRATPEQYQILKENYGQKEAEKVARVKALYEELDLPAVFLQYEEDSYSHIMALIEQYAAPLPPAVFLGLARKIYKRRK

[8] = polar aminoguanidine headgroup; source not stated; cited from earlier work
Gram-negative pathogens = test: MIC against Gram-negative pathogens
[9] = test system: vancomycin-resistant Enterococcus faecium ATCC 700221; test: Time-kill analysis; format: cell-based; conditions: 4 × MIC, 24 hour incubation, 37 °C
MRSA = conditions: topical; cited from earlier work
[10] = test system: vancomycin-resistant Enterococcus faecalis HM-201; test: C. elegans VRE infection model; format: in vivo, Caenorhabditis elegans; conditions: 20 μg/mL, treated for 18 hours, relative to untreated worms
E. faecalis HM-934 = test: Re-sensitization of VRE to vancomycin; format: cell-based, Enterococcus faecalis; conditions: for MIC: Enterococcus faecalis; for Fold-improvement in MIC of vancomycin: with ½ × MIC Compound 1
E. faecium ATCC 700221 = test: Re-sensitization of VRE to vancomycin; format: cell-based, Enterococcus faecium; conditions: for Fold-improvement in MIC of vancomycin: with ½ × MIC Compound 1
E. faecium HM-968 = test: Re-sensitization of VRE to vancomycin; format: cell-based, Enterococcus faecium; conditions: for MIC: Enterococcus faecium; for Fold-improvement in MIC of vancomycin: with ½ × MIC Compound 1
E. faecalis HM-201 = test: Re-sensitization of VRE to vancomycin; format: cell-based, Enterococcus faecalis; conditions: for MIC: Enterococcus faecalis; for Fold-improvement in MIC of vancomycin: with ½ × MIC Compound 1
E. faecalis ATCC 51299 = test: Checkerboard assay; format: cell-based, Enterococcus faecalis; conditions: antibiotic in combination with compound 1
E. faecium (ATCC 700221) = test: Re-sensitization of VRE to gentamicin; format: cell-based, Enterococcus faecium; conditions: sub-inhibitory concentration of 1; data not shown
E. faecalis (ATCC 51299) = test: Re-sensitization of VRE to gentamicin; format: cell-based, Enterococcus faecalis; conditions: sub-inhibitory concentration of 1; data not shown
VRE = conditions: administered orally, phase II clinical trial; cited from earlier work
[11] = strains of E. faecalis and E. faecium
[12] = Gram-negative pathogens of Table 1, compound alone
[13] = K. pneumoniae, P. aeruginosa and E. coli, tested alone
[14] = K. pneumoniae, P. aeruginosa and E. coli, with sub-inhibitory colistin

## CCCCc1ccc(-c2nc(C)c(/C(C)=N/NC(=N)N)s2)cc1 [Compound 1]
C. elegans AU37
  Percent viable worms: All worms survived
E. coli ΔtolC
  Cytological effect: cells lysed and formed spheroplasts
[1]
  Resensitization of VRSA to vancomycin: resensitizes; also recorded: capable of resensitizing
[2]
  Shift in MIC over 14 serial passages: one-fold increase
[3]; [11]
  MBC relative to MIC: equal to or one-fold higher
[4]; 24 hours incubation
  Non-toxic up to (concentration): 20 µg/mL
[4]; two hours incubation
  Non-toxic up to (concentration): 20 µg/mL
[5]
  Affinity to hepatic microsomal enzymes: high affinity to hepatic microsomal enzymes
[6]
  Time-kill result (complete eradication of bacteria): within two hours
Caco-2
  Caco-2 permeability, apical to basolateral: limited ability to cross from the apical to basolateral surface
[7]
  Shift in MIC over 14 serial passages: no shift in the MIC
E. faecalis
  MIC: 1 to 8 µg/mL (≈ 3.04 to 24.3 µM)
E. faecalis NR-31975
  UDP-N-acetylmuramyl pentapeptide accumulation: large increases
Human FPPS (HsFPPS)
  Inhibition of FPPS: no inhibition
[8]
  pKa: ~ 7
Gram-negative pathogens; [12]
  MIC: 8 to 64 µg/mL (≈ 24.3 to 194 µM)
[9]
  Time-kill result (complete eradication of bacteria): within two hours

## C/C(=N\NC(=N)N)c1sc(-c2ccc(-c3ccccc3)cc2)nc1C [Compound 2]
[1]
  Resensitization of VRSA to vancomycin: capable of resensitizing
[2]
  Shift in MIC over 14 serial passages: a one-fold increase in MIC was observed after the sixth passage and an additional two-fold increase was observed after the eleventh passage
[3]; against E. faecium
  MBC relative to MIC: more than four-fold higher
[4]; 24 hours incubation
  Toxic at (concentration): 40 µg/mL
  Non-toxic up to (concentration): 20 µg/mL
[4]; two hours incubation
  Non-toxic up to (concentration): 40 µg/mL
[6]
  Time-kill result (complete eradication of bacteria): within two hours
[7]
  Shift in MIC over 14 serial passages: one-fold increase
E. faecalis
  MIC: 16 µg/mL (≈ 45.8 µM)
[8]
  pKa: ~ 7
Gram-negative pathogens; [12]
  MIC: > 128 µg/mL
Gram-negative pathogens; [13]
  MIC: > 128 µg/mL
Gram-negative pathogens; [14]
  MIC: 1 to 4 µg/mL (≈ 2.86 to 11.4 µM)
[9]
  Time-kill result (complete eradication of bacteria): not capable of completely eradicating the bacteria

## CCCCC#Cc1ccc(-c2nc(C)c(/C(C)=N/NC(=N)N)s2)cc1 [Compound 3]
[2]
  Shift in MIC over 14 serial passages: one-fold increase
[3]; [11]
  MBC relative to MIC: equal to or one-fold higher
[4]; 24 hours incubation
  Toxic at (concentration): 40 µg/mL
  Non-toxic up to (concentration): 20 µg/mL
[4]; two hours incubation
  Non-toxic up to (concentration): 40 µg/mL
[6]
  Time-kill result (complete eradication of bacteria): within two hours
Caco-2
  Caco-2 permeability, apical to basolateral: limited ability to cross from the apical to basolateral surface
[7]
  Shift in MIC over 14 serial passages: no shift in the MIC
MRSA
  Reduction of MRSA burden in infected skin wounds: 96%
E. faecalis
  MIC: 1 to 8 µg/mL (≈ 2.83 to 22.6 µM)
[8]
  pKa: ~ 7
Gram-negative pathogens; [12]
  MIC: > 128 µg/mL
Gram-negative pathogens; [13]
  MIC: > 128 µg/mL
Gram-negative pathogens; [14]
  MIC: 1 to 4 µg/mL (≈ 2.83 to 11.3 µM)
[9]
  Time-kill result (complete eradication of bacteria): four hours

## CC[C@H]1OC(=O)[C@H](C)[C@@H](O[C@H]2C[C@@](C)(OC)[C@@H](O)[C@H](C)O2)[C@H](C)[C@@H](O[C@@H]2O[C@H](C)C[C@H](N(C)C)[C@H]2O)[C@](C)(O)C[C@@H](C)C(=O)[C@H](C)[C@@H](O)[C@]1(C)O [Erythromycin, reference compound]
Gram-negative pathogens
  MIC: > 128 µg/mL
Gram-negative pathogens; [14]
  MIC: 0.5 to 1 µg/mL (≈ 0.681 to 1.36 µM)

## CC(=O)NC[C@H]1CN(c2ccc(N3CCOCC3)c(F)c2)C(=O)O1 [Linezolid, reference compound]
[2]
  Shift in MIC over 14 serial passages: No increase in MIC
[10]
  Decrease in VRE burden in infected worms: unable to reduce the burden of VRE
[3]; [11]
  MBC relative to MIC: more than four-fold higher
[6]
  Time-kill result (complete eradication of bacteria): not able to generate a 10^3 × reduction in VRE CFU over 24 hours
[7]
  Shift in MIC over 14 serial passages: one-fold increase
[9]
  Time-kill result (complete eradication of bacteria): not able to generate a 10^3 × reduction in VRE CFU over 24 hours

## CN[C@H](CC(C)C)C(=O)N[C@H]1C(=O)N[C@@H](CC(N)=O)C(=O)N[C@H]2C(=O)N[C@H]3C(=O)N[C@H](C(=O)N[C@H](C(=O)O)c4cc(O)cc(O)c4-c4cc3ccc4O)[C@H](O)c3ccc(c(Cl)c3)Oc3cc2cc(c3O[C@@H]2O[C@H](CO)[C@@H](O)[C@H](O)[C@H]2O[C@H]2C[C@](C)(N)[C@H](O)[C@H](C)O2)Oc2ccc(cc2Cl)[C@H]1O [Vancomycin]
E. faecalis HM-934; HM934, read-out: MIC of vancomycin, + ½ × MIC Compound 1
  MIC: > 128 µg/mL
E. faecalis HM-934; HM934, read-out: MIC of vancomycin, vancomycin alone
  MIC: > 512 µg/mL
E. faecalis HM-934
  Fold-improvement in MIC of vancomycin: No change
E. faecalis HM-934; listed as vancomycin
  Fold-improvement in MIC of vancomycin: no resensitization
E. faecalis NR-31975
  UDP-N-acetylmuramyl pentapeptide accumulation: large increases
E. faecium ATCC 700221; Enterococcus faecium, ATCC700221, read-out: MIC of vancomycin, vancomycin alone
  MIC: 256 µg/mL
E. faecium ATCC 700221
  Fold-improvement in MIC of vancomycin: 256-fold
E. faecium ATCC 700221; listed as vancomycin
  Fold-improvement in MIC of vancomycin: 256 fold
E. faecium HM-968; HM968, read-out: MIC of vancomycin, + ½ × MIC Compound 1
  MIC: > 128 µg/mL
E. faecium HM-968; HM968, read-out: MIC of vancomycin, vancomycin alone
  MIC: 1020 µg/mL
E. faecium HM-968
  Fold-improvement in MIC of vancomycin: No change
E. faecium HM-968; listed as vancomycin
  Fold-improvement in MIC of vancomycin: no resensitization
E. faecalis HM-201; HM201, read-out: MIC of vancomycin, + ½ × MIC Compound 1
  MIC: > 128 µg/mL
E. faecalis HM-201; HM201, read-out: MIC of vancomycin, vancomycin alone
  MIC: 512 µg/mL
E. faecalis HM-201
  Fold-improvement in MIC of vancomycin: No change
E. faecalis HM-201; listed as vancomycin
  Fold-improvement in MIC of vancomycin: no resensitization

## CC1(C)S[C@@H]2[C@H](NC(=O)[C@H](N)c3ccccc3)C(=O)N2[C@H]1C(=O)O [ampicillin]
E. faecalis ATCC 51299
  FIC index: 3.00

## O=C(O)c1cn(C2CC2)c2cc(N3CCNCC3)c(F)cc2c1=O [ciprofloxacin]
E. faecalis ATCC 51299
  FIC index: 0.50

## C[C@H]1c2cccc(O)c2C(=O)C2=C(O)[C@]3(O)C(=O)C(C(N)=O)=C(O)[C@@H](N(C)C)[C@@H]3[C@@H](O)[C@@H]21 [doxycycline]
E. faecalis ATCC 51299
  FIC index: 2.00

## CNC(C)C1CCC(N)C(OC2C(N)CC(N)C(OC3OCC(C)(O)C(NC)C3O)C2O)O1 (stereo not shown) [gentamicin]
E. faecium (ATCC 700221)
  Resensitization to gentamicin: unable to resensitize
E. faecalis (ATCC 51299)
  Resensitization to gentamicin: unable to resensitize

## Ramoplanin
VRE
  Patients with suppressed gastrointestinal colonization of VRE: up to 90%
